Results taken from patent publication US20190224202A1, “STABLE LIQUID FORMULATIONS OF PEMETREXED” (LEIUTIS PHARMACEUTICALS PVT. LTD., priority 2015, published 2019).

Tests used:
[1] = Solubility of Pemetrexed diacid in water (statement); format: physicochemical
[2] = Solubility study of Pemetrexed diacid in various amino acids in water; format: physicochemical; conditions: 25° C.
Description: Solubility studies of Pemetrexed were performed with various amino acids alone and in combination with other excipients in water at 25° C. to check the solubility.

Solubility in water [1]: practically insoluble
Description (solubility study) ([2]; Pemetrexed diacid 50 mg, Arginine 116 mg, Water 1 ml): Clear
Description (solubility study) ([2]; Pemetrexed diacid 50 mg, Arginine 133 mg, Water 1 ml): Clear
Description (solubility study) ([2]; Pemetrexed diacid 50 mg, Arginine 166 mg, Water 1 ml): Clear
Description (solubility study) ([2]; Pemetrexed diacid 100 mg, Histidine 100 mg, Glycine 50 mg, Ammonium acetate 100 mg, Sucrose 50 mg, Water 2.5 ml): Clear
Description (solubility study) ([2]; Pemetrexed diacid 100 mg, Histidine 100 mg, Glycine 50 mg, Ammonium acetate 100 mg, Water 2.5 ml): Clear
Description (solubility study) ([2]; Pemetrexed diacid 100 mg, Histidine 100 mg, Glycine 100 mg, Ammonium acetate 100 mg, Sucrose 50 mg, Water 2.5 ml): Clear
Description (solubility study) ([2]; Pemetrexed diacid 100 mg, Histidine 100 mg, Glycine 100 mg, Ammonium acetate 100 mg, Water 2.5 ml): Clear
Description (solubility study) ([2]; Pemetrexed diacid 100 mg, Histidine 100 mg, Glycine 100 mg, Sucrose 50 mg, Water 2.5 ml): Clear
Description (solubility study) ([2]; Pemetrexed diacid 100 mg, Histidine 100 mg, Glycine 100 mg, Water 2.5 ml): Clear
Description (solubility study) ([2]; Pemetrexed diacid 100 mg, Histidine 100 mg, Glycine 200 mg, Ammonium acetate 100 mg, Sucrose 50 mg, Water 2.5 ml): Clear
Description (solubility study) ([2]; Pemetrexed diacid 100 mg, Histidine 100 mg, Glycine 200 mg, Ammonium acetate 100 mg, Water 2.5 ml): Clear
Structure (SMILES): Nc1nc2[nH]cc(CCc3ccc(C(=O)N[C@@H](CCC(=O)O)C(=O)O)cc3)c2c(=O)[nH]1 [Pemetrexed diacid, N-{4-[2-(2-Amino-4-oxo-4,7-dihydro-1H-pyrrolo[2,3-d]pyrimidin-5-yl)ethyl]benzoyl}-L-glutamic acid]
